The source made the active and inactive calls.
How the values were obtained:
[1] = biological target: T1, Mannose-6-phosphate isomerase (Homo sapiens, UniProt P34949); assay: human PMI inhibitors, high substrate, primary screen, biochemical, fluorescence intensity, high mannose 6-phosphate (AID 1220)
T1 sequence (P34949 whole entry): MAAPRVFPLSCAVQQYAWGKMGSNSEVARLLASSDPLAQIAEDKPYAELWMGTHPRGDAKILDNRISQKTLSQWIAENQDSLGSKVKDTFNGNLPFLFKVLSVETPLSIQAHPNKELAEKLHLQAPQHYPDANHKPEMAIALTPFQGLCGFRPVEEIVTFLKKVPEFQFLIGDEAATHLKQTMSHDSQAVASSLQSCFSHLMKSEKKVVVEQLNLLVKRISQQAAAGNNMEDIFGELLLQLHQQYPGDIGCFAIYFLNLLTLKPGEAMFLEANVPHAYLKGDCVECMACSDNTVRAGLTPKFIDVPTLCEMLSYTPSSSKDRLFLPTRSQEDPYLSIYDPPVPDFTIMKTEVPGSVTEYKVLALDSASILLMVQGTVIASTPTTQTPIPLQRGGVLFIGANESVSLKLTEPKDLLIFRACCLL

[2] = biological target: T2, Trace amine-associated receptor 1 (Homo sapiens, UniProt Q96RJ0); assay: Fluorescence-based cell-based high throughput dose response assay to identify agonists of the human trace amine associated receptor 1 (TAAR1).; type: functional
T2 sequence (Q96RJ0 whole entry): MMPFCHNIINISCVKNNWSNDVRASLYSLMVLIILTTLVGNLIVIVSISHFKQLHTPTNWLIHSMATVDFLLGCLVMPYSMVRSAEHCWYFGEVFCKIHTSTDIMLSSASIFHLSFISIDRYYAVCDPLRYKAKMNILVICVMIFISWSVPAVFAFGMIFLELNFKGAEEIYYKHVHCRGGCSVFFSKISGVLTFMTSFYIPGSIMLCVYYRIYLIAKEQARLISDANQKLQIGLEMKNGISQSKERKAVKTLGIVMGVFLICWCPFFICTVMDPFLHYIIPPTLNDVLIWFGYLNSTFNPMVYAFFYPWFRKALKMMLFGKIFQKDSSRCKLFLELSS

cells [3] = type: functional, cell-based
cells [4] = type: functional, cell-based; remark: listed apart in the source
[5] = biological target: T2, Trace amine-associated receptor 1; assay: Counterscreen for agonists of the human trace amine associated receptor 1 (hTAAR1): Fluorescence-based cell-based high throughput dose response assay to identify hTAAR1 agonist that also desensitize TAAR1 receptor response.; type: functional
[6] = inhibitors of intracellular T. cruzi replication, confirmation, NIH3T3 host cells, beta-gal luminescence (AID 2044); type: functional, cell-based;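 note: intracellular parasites grown in NIH/3T3 mouse fibroblasts as host cells; luminescent beta-galactosidase reporter signal from transgenic T. cruzi replicating inside host cells; inhibitors lower the luminescence signal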
[7] = cytotoxicity toward NIH3T3 fibroblasts, dose response, counter-screen, cell-based, ATP luminescence, mouse fibroblasts (AID 2010); type: functional;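 note: cells exposed to compound for about 90 hours before reading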
cells [8] = assay: cells
Bcl-2-related protein A1 [9] = biological target: T3, Bcl-2-related protein A1 (Mus musculus, UniProt Q07440); assay: Bfl-1 binding inhibitors, SAR follow-up, biochemical, fluorescence polarization (AID 1070)
T3 sequence (Q07440 whole entry): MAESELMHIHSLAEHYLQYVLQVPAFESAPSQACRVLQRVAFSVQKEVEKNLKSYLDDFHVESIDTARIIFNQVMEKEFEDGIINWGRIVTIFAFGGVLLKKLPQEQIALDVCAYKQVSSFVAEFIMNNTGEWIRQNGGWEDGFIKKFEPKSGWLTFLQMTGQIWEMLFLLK

Bcl-2-related protein A1 [10] = biological target: T3, Bcl-2-related protein A1; assay: Bfl-1 inhibitors blocking BH3 peptide binding, confirmation, biochemical, TR-FRET, mouse Bfl-1 (AID 621);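 note: TR-FRET binding of GST-Bfl-1 to FITC-labelled Bid peptide via terbium antibody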
[11] = biological target: Glyceraldehyde-3-phosphate dehydrogenase (Homo sapiens, UniProt P04406)
[12] = Luminescence Cell-Based Dose Retest to Confirm Inhibitors of Cancer Stem Cells. [Related pubchem assays (depositor defined):AID2717, AID2721]; type: functional; conditions: Homo sapiens
Vero = assay: host cell cytotoxicity of antiviral hits, dose response, cytotoxicity control for West Nile virus antiviral project, secondary assay (AID 1650); type: functional; conditions: Chlorocebus sabaeus
[13] = biological target: T4, RNA-editing ligase 1, mitochondrial (Trypanosoma brucei brucei, UniProt P86926); assay: TbREL1 ligase inhibitors, dose response, biochemical, fluorescence, Trypanosoma brucei (AID 1117295); type: functional
T4 sequence (P86926 whole entry): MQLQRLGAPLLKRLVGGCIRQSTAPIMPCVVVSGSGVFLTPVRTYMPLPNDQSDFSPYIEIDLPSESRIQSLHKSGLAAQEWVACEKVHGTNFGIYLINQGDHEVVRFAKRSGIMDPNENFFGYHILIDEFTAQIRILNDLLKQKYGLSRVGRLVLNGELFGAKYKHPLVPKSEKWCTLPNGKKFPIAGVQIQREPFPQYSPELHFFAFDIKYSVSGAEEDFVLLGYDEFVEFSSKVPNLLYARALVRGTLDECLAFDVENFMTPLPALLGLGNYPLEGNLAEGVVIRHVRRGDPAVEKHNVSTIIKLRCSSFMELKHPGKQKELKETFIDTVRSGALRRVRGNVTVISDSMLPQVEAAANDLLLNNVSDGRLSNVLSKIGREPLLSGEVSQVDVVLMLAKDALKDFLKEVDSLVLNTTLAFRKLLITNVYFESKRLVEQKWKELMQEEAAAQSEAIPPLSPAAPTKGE

[14] = biological target: T5, Microphthalmia-associated transcription factor (Homo sapiens, UniProt O75030); assay: TRPM1 promoter luciferase signal decrease, dose response, MITF inhibitor project, cell-based, SK-MEL-5, cherry-picked, set 3 (AID 493073); type: functional
T5 sequence (O75030 whole entry): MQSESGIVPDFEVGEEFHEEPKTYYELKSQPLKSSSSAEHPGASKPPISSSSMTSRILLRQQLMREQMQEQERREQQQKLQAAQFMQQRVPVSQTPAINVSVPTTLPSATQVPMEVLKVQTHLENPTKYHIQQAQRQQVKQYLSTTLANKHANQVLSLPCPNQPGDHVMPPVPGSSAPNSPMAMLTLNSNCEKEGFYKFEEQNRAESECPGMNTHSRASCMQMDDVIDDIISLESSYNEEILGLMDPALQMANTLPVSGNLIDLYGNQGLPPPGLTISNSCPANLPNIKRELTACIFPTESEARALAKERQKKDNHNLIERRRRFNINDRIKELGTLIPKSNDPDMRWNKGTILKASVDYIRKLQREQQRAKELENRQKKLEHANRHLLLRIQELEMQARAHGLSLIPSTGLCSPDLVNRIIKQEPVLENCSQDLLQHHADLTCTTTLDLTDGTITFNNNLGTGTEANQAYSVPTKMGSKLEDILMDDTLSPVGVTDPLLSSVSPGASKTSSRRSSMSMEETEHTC

[15] = P. falciparum 3D7-ScDHODH growth inhibitors, dose response, SYBR Green, dry powder samples (AID 1159570); type: functional, cell-based;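 note: parasite growth measured after 72 hours of compound exposure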
[16] = P. falciparum Dd2 growth inhibitors, dose response, SYBR Green, cherry-picked samples (AID 1159567); type: functional, cell-based
[17] = P. falciparum Dd2 growth inhibitors, dose response, SYBR Green, dry powder samples (AID 1159566); type: functional, cell-based;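 note: potency for growth inhibition with lower SYBR green DNA signal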
[18] = P. falciparum ATP4 D1247Y mutant growth inhibitors, dose response, NITD609-resistant line, SYBR Green, dry powder (AID 1159571); type: functional, cell-based;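 note: parasites synchronized at ring stage by sorbitol before testing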

Glyceraldehyde-3-phosphate dehydrogenase, sequence (P04406 whole entry): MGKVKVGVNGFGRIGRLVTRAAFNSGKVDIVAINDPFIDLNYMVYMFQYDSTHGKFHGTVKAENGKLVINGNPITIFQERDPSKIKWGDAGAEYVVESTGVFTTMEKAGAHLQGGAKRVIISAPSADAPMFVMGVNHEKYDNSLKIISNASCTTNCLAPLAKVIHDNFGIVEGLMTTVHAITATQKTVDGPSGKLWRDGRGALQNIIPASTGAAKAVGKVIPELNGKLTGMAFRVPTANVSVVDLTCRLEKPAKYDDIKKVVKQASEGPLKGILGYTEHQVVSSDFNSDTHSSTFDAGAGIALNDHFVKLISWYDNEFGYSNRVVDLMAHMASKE

For `CC1CCCN(C(=S)SCC(=O)c2cc(Br)cc(Br)c2O)C1` (stereo not given), the IC50 [1] was > 50 µM (not active), the EC50 [2] was 0.732 µM (active) and the IC50 (cells [3]) was > 29.9 µM (inactive). For the same compound, the EC50 (cells [4]) was > 29.9 µM (inactive) and the IC50 [5] was 4.68 µM (active).

With `CCn1c(SCC(=O)c2ccccc2)nc2sc3c(c2c1=O)CCN(C)C3` the EC50 [6] was < 0.1 µM (active), the EC50 [7] was > 60 µM (not active) and the EC50 (cells [8]) was 0.061 µM (active).

With `CC1CCN(C2CC(=O)N(c3ccc(Cl)c(Cl)c3)C2=O)CC1` (stereo not given) the IC50 (Bcl-2-related protein A1 [9]) was > 100 µM (not active), the IC50 (Bcl-2-related protein A1 [10]) was > 100 µM (not active) and the IC50 [11] was > 100 µM (not active).

With `Cc1ccc(NNC(=O)C(O)(c2cccc(C(F)(F)F)c2)c2cccc(C(F)(F)F)c2)cc1` the AC50 [12] was 1.14 µM (active) and the CC50 (Vero) was 29.8 µM (active).

For `COc1ccc2nc(C)cc(NCc3cccc(C(F)(F)F)c3)c2c1`, the IC50 [13] was > 96.6 µM (inactive) and the AC50 [14] was 18.2 µM (active).

For `CN1CCC(N[C@@H](Cc2ccccc2)C(=O)NCC(c2ccccc2)c2ccccc2)(C(=O)NC2CCCCC2)CC1`, the IC50 [13] was > 96.6 µM (inactive).

For `C[C@@H]1CN([C@H](C)CO)C(=O)c2cc(NC(=O)Nc3ccc(C(F)(F)F)cc3)ccc2O[C@H]1CN(C)C(=O)Nc1cccc2ccccc12`, the AC50 [15] was 1.43 µM (active), the AC50 [16] was 1.68 µM (active) and the AC50 [17] was 1.99 µM (active). For the same compound, the AC50 [18] was 2 µM (active).
